Laboratory results from publication PMC12647759 (Scientific Reports, 2025).
Each block holds one molecule with its values, some of them ahead of it.

Legend:
[1] = test system: PLC; settings: cited from earlier work
[2] = test system: Caco2 cells; test: Tumour xenograft of Caco2 cells in nude mice; type: in vivo; settings: i.p. 3 days per week for 8 weeks, ZPT 2.5, 5 or 10 mg/kg, dipyrithione 5 mg/kg
Experimental: (§1) Tumour xenograft experiments were performed as previously described. Briefly, SW480 or Caco2 cells (5 × 10^6 cells each) were implanted subcutaneously into the right flanks of female athymic nude (nu/nu) mice (6–8 weeks old, CLEA Japan). One week later, the mice were administered intraperitoneally with ZPT, dipyrithione or the vehicle 3 days per week for 3 or 8 weeks, respectively, during which the volumes (V) of the tumours, calculated by the following formula: V = A × B^2/2 (A: the largest diameter, B: the perpendicular diameter), and the body weight were monitored every 7 days. Thereafter, tumours of the SW480-grafted mice were dissected, weighed, fixed in 4% paraformaldehyde, embedded in paraffin and serially sectioned. The Sect. (10-µm thick) were subjected to immunohistochemical detection of phosphorylated PKD by using anti-phospho-PKD antibody and HISTMOUSE-PLUS Kit (ZYMED Lab., Carlsbad, CA) according to the manufacturer’s protocol.

[3] = test system: SW480 cells; test: Tumour xenograft of SW480 cells in nude mice; type: in vivo; settings: i.p. 3 days per week for 3 weeks, ZPT 2.5, 5 or 10 mg/kg, dipyrithione 5 mg/kg
Experimental: as §1

[4] = test system: SW620 cells; test: Experimental lung metastasis of SW620 cells in nude mice; type: in vivo; settings: i.p. twice, one week before and after cell injection, ZPT 2.5 or 5 mg/kg, dipyrithione 5 mg/kg
Experimental: Female nude mice (6–8 weeks old) were injected with SW620 cells (1 × 10^7 cells) suspended in 200 µl L-15 medium via tail vein and maintained for further 8 weeks. ZPT, dipyrithione or the vehicle was administered intraperitoneally to the mice twice, 1 week before and after the cell injection. Thereafter, the mice were sacrificed, and their lungs were excised, fixed in 4% PFA, embedded in paraffin and serially sectioned. The Sect. (10-µm thick) were subjected to H&E staining. For histologic evaluation of lung micro-metastasis, the number of micro-metastatic nodules in 3 non-contiguous lung sections from each mouse was counted under a light microscope as described previously.

[5] = test system: DSS-induced inflammatory colitis; test: DSS-induced inflammatory colitis; type: in vivo, mice; settings: 2.5% DSS 7 days; i.p. once a day, ZPT 2.5, 5 or 10 mg/kg, dipyrithione 10 mg/kg
Experimental: To induce inflammatory colitis, 10 weeks-old C57BL/6JJc1 mice were allowed to take drinking water containing 2.5% (w/v) DSS (molecular weight 36,000 ~ 50,000; Wako Pure Chemical, Osaka, Japan) ad libitum for 7 days[9],[30]. During this period, they were administered intraperitoneally with ZPT, dipyrithione or a vehicle (0.5% carboxymethyl cellulose and 0.9% NaCl) once a day. Thereafter, their colons were excised, washed with PBS, dissected longitudinally, fixed in 4% paraformaldehyde (PFA), embedded in paraffin and serially sectioned as described. The Sect. (10-µm thick) were subjected to H&E staining. Images were taken with an Olympus FSX100 microscope and Olympus FSX100-BSW software. The severity of inflammatory colitis was also assessed by measuring the body weight loss and the colon length shortening.

[6] = biological target: T1, human PLCε (Homo sapiens, UniProt Q9P212); test: In vitro PLC assay using fluorogenic substrate Compound 1 (HTS), PLCε; type: biochemical; settings: Compound 1 as substrate, varying concentrations
T1 construct: expressing the full-length polypeptides of human PLCε, PLCβ4, PLCδ1 and PLCγ1 as FLAG fusions; made in house; host or cells: Expi293F cells
T1 sequence (Q9P212 whole entry, the tested form may be a part): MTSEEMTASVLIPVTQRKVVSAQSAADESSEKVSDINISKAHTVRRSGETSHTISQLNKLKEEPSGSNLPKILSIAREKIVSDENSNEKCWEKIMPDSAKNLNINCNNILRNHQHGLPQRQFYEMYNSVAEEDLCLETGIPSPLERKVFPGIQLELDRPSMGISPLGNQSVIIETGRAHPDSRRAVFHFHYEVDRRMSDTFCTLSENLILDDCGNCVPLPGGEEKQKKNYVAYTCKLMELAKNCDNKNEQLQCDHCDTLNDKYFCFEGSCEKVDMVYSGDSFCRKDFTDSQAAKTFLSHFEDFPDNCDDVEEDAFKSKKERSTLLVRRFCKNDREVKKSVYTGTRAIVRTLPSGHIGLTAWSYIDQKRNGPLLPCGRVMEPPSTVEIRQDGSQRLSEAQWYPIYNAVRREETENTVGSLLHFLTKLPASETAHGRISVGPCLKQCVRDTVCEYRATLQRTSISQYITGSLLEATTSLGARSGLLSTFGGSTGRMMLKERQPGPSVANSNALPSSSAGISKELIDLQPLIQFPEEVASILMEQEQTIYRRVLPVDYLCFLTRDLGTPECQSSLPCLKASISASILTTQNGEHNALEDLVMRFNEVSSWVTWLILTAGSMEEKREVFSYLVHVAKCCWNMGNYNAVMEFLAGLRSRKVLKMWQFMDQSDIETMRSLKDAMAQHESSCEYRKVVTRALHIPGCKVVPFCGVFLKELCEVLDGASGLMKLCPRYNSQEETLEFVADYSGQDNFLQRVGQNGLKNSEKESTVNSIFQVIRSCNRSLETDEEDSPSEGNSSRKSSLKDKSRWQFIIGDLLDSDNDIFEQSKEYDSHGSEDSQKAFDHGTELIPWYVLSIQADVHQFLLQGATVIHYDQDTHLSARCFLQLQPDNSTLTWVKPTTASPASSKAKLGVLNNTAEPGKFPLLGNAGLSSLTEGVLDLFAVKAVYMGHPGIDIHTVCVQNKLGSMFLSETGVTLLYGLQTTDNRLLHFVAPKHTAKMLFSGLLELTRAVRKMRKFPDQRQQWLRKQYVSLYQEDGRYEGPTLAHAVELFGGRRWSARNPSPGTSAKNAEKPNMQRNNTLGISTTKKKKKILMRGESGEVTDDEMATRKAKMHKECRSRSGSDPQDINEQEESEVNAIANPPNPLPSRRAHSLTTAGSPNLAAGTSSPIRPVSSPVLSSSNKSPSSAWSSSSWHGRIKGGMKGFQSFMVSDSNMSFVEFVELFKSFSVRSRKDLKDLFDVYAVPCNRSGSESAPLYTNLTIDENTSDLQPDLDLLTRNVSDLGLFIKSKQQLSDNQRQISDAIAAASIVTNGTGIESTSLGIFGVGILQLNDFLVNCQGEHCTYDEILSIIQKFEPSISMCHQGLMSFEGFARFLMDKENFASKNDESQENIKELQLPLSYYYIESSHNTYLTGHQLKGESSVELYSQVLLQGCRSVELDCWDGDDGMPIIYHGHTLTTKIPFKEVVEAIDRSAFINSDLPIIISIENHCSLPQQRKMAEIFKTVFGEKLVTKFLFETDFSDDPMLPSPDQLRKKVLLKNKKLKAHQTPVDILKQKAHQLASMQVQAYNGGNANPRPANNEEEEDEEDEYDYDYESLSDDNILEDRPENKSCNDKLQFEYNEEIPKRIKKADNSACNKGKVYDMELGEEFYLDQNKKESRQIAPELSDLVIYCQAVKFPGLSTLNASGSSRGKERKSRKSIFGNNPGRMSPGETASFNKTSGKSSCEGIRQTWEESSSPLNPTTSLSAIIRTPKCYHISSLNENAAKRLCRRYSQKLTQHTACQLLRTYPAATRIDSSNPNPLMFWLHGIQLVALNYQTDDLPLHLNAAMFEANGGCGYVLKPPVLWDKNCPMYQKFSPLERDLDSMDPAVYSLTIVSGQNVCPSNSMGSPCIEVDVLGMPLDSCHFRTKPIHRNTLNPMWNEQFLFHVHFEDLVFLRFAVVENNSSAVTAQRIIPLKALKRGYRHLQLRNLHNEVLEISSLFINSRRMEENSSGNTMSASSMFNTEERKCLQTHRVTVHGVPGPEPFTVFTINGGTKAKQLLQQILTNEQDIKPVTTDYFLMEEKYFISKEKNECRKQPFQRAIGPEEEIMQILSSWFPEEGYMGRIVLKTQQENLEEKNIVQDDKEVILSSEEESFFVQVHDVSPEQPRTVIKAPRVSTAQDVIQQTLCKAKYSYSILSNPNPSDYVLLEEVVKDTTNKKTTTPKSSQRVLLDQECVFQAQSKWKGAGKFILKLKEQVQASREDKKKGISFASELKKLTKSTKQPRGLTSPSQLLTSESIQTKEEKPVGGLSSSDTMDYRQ
Experimental: For measuring inhibition by compounds for HTS, the reactions were conducted at RIKEN Center for Sustainable Resource Science (CSRS) as described above except that 5 µl of compound solution and 5 µl of purified PLCe (120 ng) were added to each well. […] For determination of the IC50 values for ZPT and Zn^2+, the EDTA concentration was reduced to one-tenth to avoid its zinc-chelating effect. For assay of the other PLC classes, the reactions were performed similarly except that PLCβ4 (5 ng), PLCδ1 (0.1 ng) or PLCγ1 (0.3 ng) was used instead of PLCε.

[7] = test system: intestinal tumours of Apc^Min/+ mice; test: Intestinal tumourigenesis of Apc^Min/+ mice; type: in vivo; settings: i.p. 3 days per week for 11 weeks, ZPT 2.5 or 5 mg/kg, dipyrithione 5 mg/kg
Experimental: Five weeks-old Apc^Min/+ mice were administered intraperitoneally with ZPT, dipyrithione or the vehicle 3 days per week for 11 weeks. Thereafter, the mice were sacrificed and the whole small intestines were excised, rolled up in a ‘Swiss roll’ configuration, embedded in OCT compound and longitudinally sectioned at the 10-µm thickness. One section in the middle position of each intestine was subjected to H&E staining after fixation with 4% PFA, and tumours in the whole section were classified under microscope into hyperplasias, low-grade adenomas, high-grade adenomas and adenocarcinomas according to the histopathological criteria recommended for the study of mouse models of intestinal cancer. The classification was conducted by a pathologist at Pathology Analysis Center (Kanagawa, Japan) under the blind condition regarding the compound administration.

[8] = test system: Caco2 cells; test: Determination of intracellular zinc concentration with Zinquin ethyl ester; type: cell-based, human; settings: 5 µM sodium pyrithione added to 5 µM ZnSO4, 30 min
Experimental: Confluent Caco2 cells in a Φ10-cm culture dish were subjected to serum starvation overnight and incubated with 10 µM MG132 for 30 min. […] The cells were harvested by trypsinization, washed with PBS and suspended at the density of 5 × 10^6 cells/ml in Hanks’ balanced salt solution (HBSS). After the addition of 1 mg/ml Zinquin ethyl ester (Dojindo Laboratories, Kumamoto, Japan)[27] dissolved in DMSO at the final concentration of 25 µM, the cell suspension was incubated at 37 °C for 30 min. Subsequently, the cells were washed three times with HBSS, suspended in HBSS at the density of 5 × 10^6 cells/ml and subjected to measurement of the fluorescence emission at 490 nm with the excitation at 370 nm by POLARstar Omega-25.

SMILES: COc1ccc2c(c1)CC[C@@H]1[C@@H]2CC[C@]2(C)[C@@H](NCCCCCCN3C(=O)C=CC3=O)CC[C@@H]12 [U73122]
inhibition of PLC catalytic activity in vitro [1]: failed to inhibit PLC catalytic activity in vitro

SMILES: [O-][n+]1ccccc1SSc1cccc[n+]1[O-] [dipyrithione]
growth of grafted cells (tumour volume) [2]: not
growth of grafted cells (tumour volume) [3]: not
numbers of micro-metastatic nodules in lung sections [4]: exhibited no effect
body weight loss [5]: failed to alleviate
colon length shortening [5]: failed to alleviate
histology: erosion of the mucosa, swelling of the submucosa and leukocyte infiltration [5]: failed to alleviate
inhibition of PLCε [6]: failed to inhibit PLCε
ratio of high-grade adenomas / progression of low-grade to high-grade adenomas [7]: appeared to accelerate the progression of low-grade adenomas to high-grade adenomas

inhibition of PLCε [6]: failed to inhibit PLCε
SMILES: On1ccccc1=S [sodium pyrithione]
increase in intracellular Zn^2+ concentration [8]: 8.78 fold
